Results as given in publication PMC6370294 (Journal of biological inorganic chemistry : JBIC : a …, 2018).

Columns and labels:
5G-XoxF = target: T1, 5G-XoxF (Methylotuvimicrobium buryatense, UniProt A0A3F2YLY8); experiment: DCPIP dye-linked dehydrogenase assay, A600; format: biochemical; settings: PMS mediator, DCPIP acceptor; La(III) enzyme; 30 °C; 1.5 μM enzyme
T1 sequence (A0A3F2YLY8 27-617): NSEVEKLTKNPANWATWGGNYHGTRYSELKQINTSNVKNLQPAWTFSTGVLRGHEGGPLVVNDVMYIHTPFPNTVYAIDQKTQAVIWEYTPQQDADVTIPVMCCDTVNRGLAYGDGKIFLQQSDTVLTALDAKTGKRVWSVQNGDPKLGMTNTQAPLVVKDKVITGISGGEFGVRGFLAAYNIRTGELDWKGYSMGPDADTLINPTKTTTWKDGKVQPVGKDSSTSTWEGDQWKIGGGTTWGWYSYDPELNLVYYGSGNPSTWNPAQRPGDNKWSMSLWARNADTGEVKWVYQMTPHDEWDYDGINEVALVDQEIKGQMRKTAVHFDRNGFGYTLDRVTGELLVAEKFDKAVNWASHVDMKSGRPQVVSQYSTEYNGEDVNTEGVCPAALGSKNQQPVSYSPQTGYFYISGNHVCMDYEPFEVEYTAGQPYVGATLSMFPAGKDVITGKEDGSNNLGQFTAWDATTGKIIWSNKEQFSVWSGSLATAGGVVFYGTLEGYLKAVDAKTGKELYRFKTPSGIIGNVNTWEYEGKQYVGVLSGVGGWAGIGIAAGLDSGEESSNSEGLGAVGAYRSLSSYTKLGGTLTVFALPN

[1] = target: XoxF from Methylomicrobium buryatense 5GB1C (Methylomicrobium buryatense 5GB1C); experiment: BLI

Kd [1] [µM] | Compound | specific activity (5G-XoxF)
– | CO [methanol] | Purified 5G-XoxF exhibits methanol oxidation activity
50 | particulate methane monooxygenase from Methylomicrobium buryatense 5GB1C (complex) | –
